Test [1] concerns C2C12 cells. The test is described as follows: Binding stability: intracellular co-localization of peptides with exosomes (confocal microscopy, FRET). In kind it is cell-based, murine. The protocol:
The intracellular co-localization of CP05 and EXP with exosomes was examined with confocal microscopy at different timepoints. FAM-labeled CP05 and EXP were incubated with DiI-labeled exosomes and then added into C2C12 cells.
The meanings of the signs in the figure are as follows: DAPI means staining result for nuclei by DAPI, Peptide(488,520) refers to the excitation and emission wavelength of FAM-labeled CP05 and EXP; EXO(Dil)(540,620) refers to the excitation and emission wavelength for DiI-labeled exosomes; Merge is the superposition of above three staining results; FRET means fluorescence resonance energy transfer. Optical energy resonance transfer is an energy transfer phenomenon between two fluorescent molecules that are very close to each other. When the emission spectrum of the donor fluorescent molecule overlaps with the absorption spectrum of the acceptor fluorescent molecule, and the distance between two molecules is within the range of 10 nm, a […] energy transfer occurs. In the figure, the FAM-Peptide is the donor fluorescent molecule and DiI-EXO is the acceptor fluorescent molecule. […] EXOCP05 is the staining result of exosomes combined with CP05 sequence which is recorded in the prior art Chinese Patent No. CN201510520565.7, and EXOEXP refers to the staining result of the combination of EXP of the present invention and exosomes. […]

The subject of test [2] is exosomes in serum. The test is described as follows: Capture of serum exosomes with His-tagged peptide coated nickel beads. From the text:
(A) Nano sight was used to detect the particle size of exosomes in serum captured by CP05 and EXP. It's shown by the results that the particle size of exosomes captured by EXP was about 50 nm, whose homogeneity was higher than that of exosomes recovered by ultra separation. […] It's shown by the results that exosomes captured by EXP has typical bi-layer structure, and the size of exosomes captured by EXP was smaller than that of exosomes recovered by ultrafiltration.(D) Western blot was used to detect the marker protein capturing exosome.
Experimental example 6: Characterization and functional validation of exosome captured from serum by EXP. • (1) His-tagged EXP and CP05 (100 μg) were respectively mixed with […] beads in 200 μl binding solution at 4° C. for 1 h under rotation. • (2) 1 ml pre-centrifuged serum was added to His-EXP and His-CP05 coated nickel beads (centrifuged at 4400 g for 20 min, followed by 13000 g for 5 min), and then incubated at 4° C. for 30 min; • (3) The serum was discarded and the nonspecific binding was washed with the washing solution for 3 times, 10 min each time. • (4) […] was used to recover extracellular vesicles.
6.1 Measurement of the size of captured exosomes. • (1) […] of exosomes recovered from elution were diluted into 1 ml of PBS. • (2) Nanosight was used to detect the size distribution of captured exosomes. […]

For the sequence CRHKMWTVKSRL (EXP), in test [1], the “co-localization with EXO in cells at 48 hours” value is “still detectable”. Moreover, in test [2] (FIG. 6F), the “capture efficiency of exosomes in serum” value is on record as 93.5%. The “extraction rate of serum exosomes compared with CP05” value in test [2] (extraction of serum exosomes) was “about 2 times”.

The values are drawn from patent US11951171B2, “Polypeptide EXP and its drug delivery system as well as extracellular vesicle extraction” (TIANJIN MEDICAL UNIVERSITY, priority 2019, dated 2024).
